Data published in publication PMC5321434, “Dihydrobenz[e][1,4]oxazepin-2(3H)-ones, a new anthelmintic chemotype immobilising whipworm and reducing infectivity in vivo” (PLoS Neglected Tropical Diseases, 2017).

Tests used:
[1] = system: CMT-93 murine rectal epithelial cells; assay: WST-8 cytotoxicity assay; assay type: cell-based, mouse; details: Mus musculus, CMT93; CMT-93 cells, 72 hours, maximum tested concentration 100μM, n = 8, 95% confidence interval in parentheses
Procedure: CMT-93 murine rectal epithelial cells were maintained in Dulbecco's Modified Eagle's Medium (DMEM) with 10% fetal calf serum (FCS) and 1% penicillin-streptomycin solution (10,000U/ml). Cells were plated in 96-well tissue culture plates at a density of 2x10^2 cells per well in a volume of 100μl, and cultured for 96 hours (37°C, 5% CO2) until reaching 30% confluence. The growth medium was removed and replaced with treatment media (DMEM, 1% FCS, 1% penicillin-streptomycin solution, 100μl assay volume) supplemented with vehicle alone (DMSO), test compounds or chlorpromazine, a positive control for cytotoxicity (final concentrations from 0 to 100μM). Maximum vehicle concentration for all compounds was 0.5% DMSO. Cells were cultured with the test compounds for 72 hours before cytotoxicity measurement. The WST-8 assay was performed using the Cell Counting Kit– 8 (Sigma Aldrich # 96992). 10μl of the CCK-8 solution was added to each well, plates were incubated for a further 2 hours, before absorbance was measured at 450nm using a microplate reader. This assay measures the ability of metabolically active cells to reduce a water-soluble formazan dye. Results were analysed using GraphPad Prism and fitted using a log-logistic model.

[2] = system: CMT-93 murine rectal epithelial cells; assay: Neutral red cytotoxicity assay; assay type: cell-based, mouse; details: Mus musculus, CMT93; CMT-93 cells, 72 hours, maximum tested concentration 100μM, n = 8, 95% confidence interval in parentheses
Procedure: CMT-93 murine rectal epithelial cells were maintained in Dulbecco's Modified Eagle's Medium (DMEM) with 10% fetal calf serum (FCS) and 1% penicillin-streptomycin solution (10,000U/ml). Cells were plated in 96-well tissue culture plates at a density of 2x10^2 cells per well in a volume of 100μl, and cultured for 96 hours (37°C, 5% CO2) until reaching 30% confluence. The growth medium was removed and replaced with treatment media (DMEM, 1% FCS, 1% penicillin-streptomycin solution, 100μl assay volume) supplemented with vehicle alone (DMSO), test compounds or chlorpromazine, a positive control for cytotoxicity (final concentrations from 0 to 100μM). Maximum vehicle concentration for all compounds was 0.5% DMSO. Cells were cultured with the test compounds for 72 hours before cytotoxicity measurement. Following the WST-8 assay, the medium was removed, cells were washed with 100μl PBS and then 100μl of neutral red medium (DMEM, 1% FBS and 33μg/ml neutral red dye (Sigma Aldrich #N2889) were added to each well, followed by incubation for a further 2 hours. The neutral red medium was removed, cells washed with 100μl of PBS and 100μl of destain solution (50% ethanol, 49% distilled water and 1% glacial acetic acid) were added. Each assay plate was shaken rapidly for 10 minutes before absorbance was measured at 540nm using a microplate reader. This assay measures the ability of living cells to actively take up the neutral red dye. Results were analysed using GraphPad Prism and fitted using a log-logistic model.

adult T. muris = assay: Ex vivo adult T. muris automated motility assay (primary/secondary screen at 100 μM and dose-response); set-up: species or system Trichuris muris; details: for PRIMARY_SCREEN_MINUS_LOG_FOLD_CHANGE_MOVEMENT: primary screen; for PRIMARY_SCREEN_MINUS_LOG_FOLD_CHANGE_MOVEMENT / SECONDARY_SCREEN_MINUS_LOG_FOLD_CHANGE_MOVEMENT: adult T. muris motility; for SECONDARY_SCREEN_MINUS_LOG_FOLD_CHANGE_MOVEMENT: secondary screen; for EC50: Trichuris muris, values of Fig 5 shown for comparison, read-out: EC50 in adult Trichuris paralysis assay
Method in brief: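 Adult worms recovered from SCID mice at day 35 post-infection (200 eggs orally), one per well, in RPMI-1640 with penicillin/streptomycin and 1% DMSO. Compound at 100 μM final in primary screen, 24 h at 37 °C, 5% CO2; motility from pixel-variance imaging, dose-response by four-parameter log-logistic fit.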

[3] = combined primary and secondary screen minus log fold change in movement, adult T. muris, 100 μM
[4] = adult T. muris motility screen at 100 μM, combines primary and secondary screen minus log fold change in movement (mean where both are given)

Compound	COMBINED_SCREEN_ACTIVITY (adult T. muris; [3])	PRIMARY_SCREEN_MINUS_LOG_FOLD_CHANGE_MOVEMENT (adult T. muris; 100 μM)	other results
CN(C)CCCN1c2ccccc2Sc2ccc(Cl)cc21 [Chlorpromazine, reference compound]			EC50 [1]: 9 µM; EC50 [2]: 10 µM
COCc1cccc(-c2ccc3c(c2)N(CCN2CCOCC2)C(=O)COC3)c1 [Compound 158]	-1.5946	-1.5946	
O=C1COCc2ccc(-c3cccnc3)cc2N1Cc1ccc(C(F)(F)F)cc1 [Compound 159]	11.6591	10.6993	SECONDARY_SCREEN_MINUS_LOG_FOLD_CHANGE_MOVEMENT (adult T. muris; 100 μM): 12.6188
O=C1COCc2ccc(Br)cc2N1Cc1ccc(C(F)(F)F)cc1 [Compound 160]	8.379	8.379	
COc1cc(F)ccc1-c1ccc2c(c1)COCC(=O)N2CCN1CCOCC1 [Compound 161]	-1.617	-1.617	
COc1ccc(F)cc1-c1ccc2c(c1)N(CCN1CCOCC1)C(=O)COC2 [Compound 162]	-1.305	-1.305	
COc1ccc(F)cc1-c1ccc2c(c1)COCC(=O)N2CCN1CCOCC1 [Compound 163]	-0.1485	-0.1485	
CC(=O)Nc1cccc(-c2ccc3c(c2)N(CCc2ccccc2)C(=O)COC3)c1 [Compound 164]	1.82	1.82	
Cn1cc(-c2ccc3c(c2)COCC(=O)N3Cc2ccc(C(F)(F)F)cc2)cn1 [Compound 165]	10.5493	10.5493	
Cn1cc(-c2ccc3c(c2)N(Cc2ccc(C(F)(F)F)cc2)C(=O)COC3)cn1 [Compound 166]	11.5841	10.5493	SECONDARY_SCREEN_MINUS_LOG_FOLD_CHANGE_MOVEMENT (adult T. muris; 100 μM): 12.6188
O=C1COCc2ccc(-c3ccc4ccccc4c3)cc2N1CCN1CCOCC1 [Compound 167]	3.214	3.214	
O=C1COCc2cc(-c3cccc(CO)c3)ccc2N1Cc1ccc2c(c1)OCO2 [Compound 168]	1.914	1.914	
COc1cccc(CN2C(=O)COCc3ccc(-c4ccc5c(c4)OCO5)cc32)c1 [Compound 169]	0.1266	0.1266	
COCc1cccc(-c2ccc3c(c2)COCC(=O)N3Cc2cccc(OC)c2)c1 [Compound 170]	-0.3892	-0.3892	
COc1ccc(-c2ccc3c(c2)N(CCc2ccccc2)C(=O)COC3)cc1OC [Compound 171]	7.742	7.742	
COCc1cccc(-c2ccc3c(c2)N(Cc2cccc(OC)c2)C(=O)COC3)c1 [Compound 172]	-0.3707	-0.3707	
O=C1COCc2ccc(-c3cnc4ccccc4c3)cc2N1CCN1CCOCC1 [Compound 173]	0.2312	0.2312	
O=C1COCc2cc(-c3cc(F)cc(Cl)c3)ccc2N1CCN1CCOCC1 [Compound 174]	-1.356	-1.356	
O=C1COCc2ccc(-c3ccc(F)c(Cl)c3)cc2N1CCN1CCOCC1 [Compound 175]	0.9531	0.9531	

Compound	COMBINED_SCREEN_ACTIVITY (adult T. muris; [3])	PRIMARY_SCREEN_MINUS_LOG_FOLD_CHANGE_MOVEMENT (adult T. muris; 100 μM)	other results
O=C1COCc2ccc(-c3cc(F)cc(Cl)c3)cc2N1CCN1CCOCC1 [Compound 176]	-1.404	-1.404	
COc1cccc(CN2C(=O)COCc3cc(-c4ccc(F)cc4OC)ccc32)c1 [Compound 177]	-1.282	-1.282	
O=C(O)c1cccc(-c2ccc3c(c2)N(Cc2cc(F)cc(F)c2)C(=O)COC3)c1 [Compound 178]	-2.449	-2.449	
COCc1cccc(-c2ccc3c(c2)COCC(=O)N3Cc2cc(F)cc(F)c2)c1 [Compound 179]	0.9799	0.9799	
CC(C)Oc1cccc(-c2ccc3c(c2)N(CCN2CCOCC2)C(=O)COC3)c1 [Compound 180]	-1.713	-1.713	
COc1cc(F)ccc1-c1ccc2c(c1)N(Cc1cc(F)cc(F)c1)C(=O)COC2 [Compound 181]		-0.2325	COMBINED_SCREEN_ACTIVITY (adult T. muris; [4]): -0.2325
COc1cc(F)ccc1-c1ccc2c(c1)COCC(=O)N2Cc1cc(F)cc(F)c1 [Compound 182]	-0.8244	-0.8244	
COC(=O)c1cccc(-c2ccc3c(c2)N(Cc2cccc(OC)c2)C(=O)COC3)c1 [Compound 183]		-1.271	COMBINED_SCREEN_ACTIVITY (adult T. muris; [4]): -1.271
O=C1COCc2ccc(-c3cccc(C(F)(F)F)c3)cc2N1CCN1CCOCC1 [Compound 184]	-1.964	-1.964	
CC(=O)Nc1cccc(-c2ccc3c(c2)N(Cc2cc(F)cc(F)c2)C(=O)COC3)c1 [Compound 185]		10.5493	COMBINED_SCREEN_ACTIVITY (adult T. muris; [4]): 6.728; SECONDARY_SCREEN_MINUS_LOG_FOLD_CHANGE_MOVEMENT (adult T. muris; 100 μM): 2.906
Cc1ccc(-c2ccc3c(c2)COCC(=O)N3Cc2ccc(C(=O)N(C)C)cc2)cc1C [Compound 186]		10.5493	COMBINED_SCREEN_ACTIVITY (adult T. muris; [4]): 10.5493
CCN(CC)C(=O)c1cccc(-c2ccc3c(c2)N(Cc2ccccc2)C(=O)COC3)c1 [Compound 187]		7.09	COMBINED_SCREEN_ACTIVITY (adult T. muris; [4]): 9.854; SECONDARY_SCREEN_MINUS_LOG_FOLD_CHANGE_MOVEMENT (adult T. muris; 100 μM): 12.6188
COc1ccccc1-c1ccc2c(c1)COCC(=O)N2Cc1ccc(C(=O)N(C)C)cc1 [Compound 188]		1.744	COMBINED_SCREEN_ACTIVITY (adult T. muris; [4]): 1.744
CC(C)c1cccc(-c2ccc3c(c2)COCC(=O)N3Cc2ccc(C(=O)N(C)C)cc2)c1 [Compound 190]		10.3993	COMBINED_SCREEN_ACTIVITY (adult T. muris; [4]): 11.0091; SECONDARY_SCREEN_MINUS_LOG_FOLD_CHANGE_MOVEMENT (adult T. muris; 100 μM): 11.6188
CCN(CC)C(=O)c1cccc(-c2ccc3c(c2)N(Cc2ccccc2C)C(=O)COC3)c1 [Compound 191]		10.7743	COMBINED_SCREEN_ACTIVITY (adult T. muris; [4]): 10.9041; SECONDARY_SCREEN_MINUS_LOG_FOLD_CHANGE_MOVEMENT (adult T. muris; 100 μM): 11.0339
CN(C)C(=O)c1ccc(CN2C(=O)COCc3cc(-c4ccc5c(c4)OCO5)ccc32)cc1 [Compound 192]		10.5493	COMBINED_SCREEN_ACTIVITY (adult T. muris; [4]): 10.5493
O=C1COCc2cc(-c3cccnc3)ccc2N1CC1CCCCC1 [OX02993, 1-(Cyclohexylmethyl)-7-(pyridin-3-yl)-1,5-dihydrobenzo[e][1,4]oxazepin-2(3H)-one]			EC50 [1]: > 100 µM; EC50 [2]: > 100 µM; EC50 (adult T. muris): 52 µM
O=C1COCc2cc(-c3cccnc3)ccc2N1Cc1ccc(C(F)(F)F)cc1 [OX03144, 7-(Pyridin-3-yl)-1-(4-(trifluoromethyl)benzyl)-1,5-dihydrobenzo[e][1,4]oxazepin-2(3H)-one]			EC50 [1]: > 100 µM; EC50 [2]: 60 µM; EC50 (adult T. muris): 26 µM
Cc1ccc(CN2C(=O)COCc3cc(Br)ccc32)cc1 [OX03146, 7-Bromo-1-(4-methylbenzyl)-1,5-dihydrobenzo[e][1,4]oxazepin-2(3H)-one]			EC50 [1]: 63 µM; EC50 [2]: 47 µM; EC50 (adult T. muris): 35 µM
